Source: US20120190707A1, “SELECTIVE INHIBITORS OF AKT AND METHODS OF USING SAME” (priority 2008, published 2012)
Where “and” joins values, the source holds several entries; their conditions need not be identical. Equal values may be shown once. Entries after “also recorded” stand apart in the source; their conditions may differ. Read-outs that look alike come from different tables or passages of the source.

How the values were obtained:
Akt1 [1] = target: T1, Akt1 (Homo sapiens, UniProt P31749); test: Akt1 inhibition, Z'-LYTE kit fluorescent-enzymatic assay; assay type: biochemical; details: for Ki: 10 μM compound 1, 20 μM compound 2, 50 μM compound 3, increasing ATP, Lineweaver-Burk
Experimental: Here the top 4000 compounds out of 50000 docked compounds were selected using FlexX and Drugscore (BioSolvIT). The top 4000 docked structures were further evaluated and ranked according to Goldscore and Chemscore functions (CSCORE). A list of common 200 compounds was then selected among ranked top 700 compounds according to both scoring functions (FIG. 1B). […] The remaining 100 compounds were experimentally tested up to 30 μM against Akt1. The inhibitory activity was evaluated for the selected compounds by using Z'-LYTE™ kit assay provided by Invitrogen Corporation (19). […] Corning® 384-well low volume plates (20 μl) were used. The fluorescent-enzymatic assay has been performed following the protocol provided by Invitrogen Corporation, using a fluorescent plate reader (Victor2, Perkin-Elmer). […] C) Lineweaver-Burk Km and Km(app) evaluation for Akt1. Each measurement was performed in triplicate. […] The Ki and the Km(app) were calculated at fixed inhibitor concentrations, as reported in the text. All constant values were definitely evaluated by fitting the data to the Lineweaver-Burk plot; D) Akt1 inhibition assay using GSK-3 as a substrate. Comparison of compounds 1 and 2 (Table 1) with H89 at 10 μM. E) Dose response for compound 1. Akt (10 ng of recombinant enzyme) in 25 μl 1× kinase buffer (25 mM Tris, pH 7.5; 5 mM n-glycerol phosphate; 2 mM dithiothreitol; 0.1 mM Na3VO4; and 10 mM MgCl2), was mixed with 2.5 μl DMSO (1% stock) or MPA-D (100 μM in 1% DMSO). Samples were incubated on ice for 1.5 hours at which time 1 μg of GSK-3 fusion protein (Cell Signaling), which served as the substrate, was added followed by ATP (200 μM) to each reaction mixture. After the suspensions were incubated at 30° C. for 20 min, the reaction was terminated by the addition of 3×SDS sample buffer (187.5 mM Tris-HCl, pH 6.8; 6% SDS; 30% glycerol; 150 mM dithiothreitol; and 0.03% bromophenol blue). The samples were boiled for 5 min, and the proteins were separated on a 12% SDS polyacrylamide gel and subsequently transferred to a nitrocellulose membrane. Membranes were incubated with rabbit polyclonal anti-phospho-GSK-3α/β (Ser21/9) (Cell Signaling).
For these purposes, we initially determined the Km and the Vmax of the enzymatic reaction involving the peptide provided by the Z'-LYTE™ kit assay and Akt1 by varying the concentration of ATP. The above parameters appeared to be 7.9 μM and 0.0205 μmol min^−1 mg^−1, respectively. […] Because all our inhibitors affected the Km rather than the Vmax of the reaction (FIG. 2C), they can be truly considered ATP-competitive inhibitors of Akt1.

Akt1 [2] = target: T1, Akt1; test: Akt1 inhibition assay using GSK-3 as a substrate (immuno-blotting with anti-phospho-GSK-3α/β); assay type: biochemical
Experimental: Here the top 4000 compounds out of 50000 docked compounds were selected using FlexX and Drugscore (BioSolvIT). The top 4000 docked structures were further evaluated and ranked according to Goldscore and Chemscore functions (CSCORE). A list of common 200 compounds was then selected among ranked top 700 compounds according to both scoring functions (FIG. 1B). […] The remaining 100 compounds were experimentally tested up to 30 μM against Akt1. The inhibitory activity was evaluated for the selected compounds by using Z'-LYTE™ kit assay provided by Invitrogen Corporation (19). […] Corning® 384-well low volume plates (20 μl) were used. The fluorescent-enzymatic assay has been performed following the protocol provided by Invitrogen Corporation, using a fluorescent plate reader (Victor2, Perkin-Elmer). […] C) Lineweaver-Burk Km and Km(app) evaluation for Akt1. Each measurement was performed in triplicate. […] The Ki and the Km(app) were calculated at fixed inhibitor concentrations, as reported in the text. All constant values were definitely evaluated by fitting the data to the Lineweaver-Burk plot; D) Akt1 inhibition assay using GSK-3 as a substrate. Comparison of compounds 1 and 2 (Table 1) with H89 at 10 μM. E) Dose response for compound 1. […]

[3] = FIG. 2 legend, read-out: IC50 value
[4] = Table 2, derivatives of Compound 1, read-out: IC50

T1 sequence (P31749 whole entry): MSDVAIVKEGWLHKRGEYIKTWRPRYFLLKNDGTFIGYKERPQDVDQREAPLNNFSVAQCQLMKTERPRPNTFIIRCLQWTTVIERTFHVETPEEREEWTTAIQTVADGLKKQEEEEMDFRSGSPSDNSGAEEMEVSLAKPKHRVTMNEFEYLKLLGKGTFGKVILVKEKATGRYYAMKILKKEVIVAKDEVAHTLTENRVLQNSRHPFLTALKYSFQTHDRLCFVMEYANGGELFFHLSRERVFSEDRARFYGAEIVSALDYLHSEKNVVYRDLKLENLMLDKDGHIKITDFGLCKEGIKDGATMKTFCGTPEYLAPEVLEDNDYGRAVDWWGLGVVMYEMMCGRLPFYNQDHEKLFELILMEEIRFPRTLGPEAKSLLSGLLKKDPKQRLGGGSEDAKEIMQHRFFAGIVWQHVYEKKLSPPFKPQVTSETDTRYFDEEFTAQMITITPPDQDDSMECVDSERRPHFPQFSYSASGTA

SMILES	IC50 values (in words) (Akt1 [1])	Ki (Akt1 [1])	IC50 (Akt1 [1]; [3])	Hill slope (Akt1 [1]; IC50 curve, FIG. 2A)	IC50 (Akt1 [1]; Table 1, read-out: IC50)	IC50 (Akt1 [1]; [4])	inhibition of GSK-3 phosphorylation (Akt1 [2])	inhibitory activity against Akt1 kinase (in words) (Akt1 [1])
CC1=C(C#N)c2nc(N)c(C#N)c(C)c2/C1=C/c1ccc(-c2ccc(C(=O)O)c(Cl)c2)o1 [Compound 1]	low-micromolar range	1.1 µM	2.3 µM and 2.6 µM	1.1	2.6 µM	2.6 µM	low micromolar range	
O=C(O)c1cc(-c2ccc(C=C3C(=O)c4ccccc4C3=O)o2)ccc1O [Compound 3]		20.8 µM	25.1 µM					
CC1=C(C#N)c2nc(N)c(C#N)c(C)c2C1=Cc1ccc(-c2ccc(C(=O)O)cc2)o1 [Compound 4]								appreciable inhibition in the micromolar range; also recorded: limited inhibitory activity
CC1=C(C#N)c2nc(N)c(C#N)c(C)c2C1=Cc1ccc(-c2cccc(C(=O)O)c2)o1 [Compound 5]						60.2 µM		appreciable inhibition in the micromolar range; also recorded: limited inhibitory activity
